Laboratory results taken from patent publication US20240082373A1, “COMPOSITIONS FOR CHIMERIC ANTIGEN RECEPTOR T CELL THERAPY AND USES THEREOF” (priority 2017, published 2024).

Assays:
FITC-CAR-T = FITC-CAR-T proliferation in lymph nodes after vaccination (CTV-labeled cells); format: in vivo, C57Bl/6 mice; settings: adjuvant alone, 25 ug
Experimental: To assess whether DSPE-PEG-FITC accumulating on lymph node antigen presenting cells would lead to CAR T cell priming and how long this stimulatory effect would last for, at day 1, mice were administered PBS, c-di-GMP (25 ug), DSPE-PEG-FITC (10 nmol), or DSPE-PEG-FITC (10 nmol)+c-di-GMP (25 ug) into wildtype C57Bl/6 mice. After various time points, as indicated in the timeline in FIG. 7A, 2×10^6 CTV-labeled CAR-T cells were transferred into each mouse via tail-vein injection. CAR-T cells were titrated to be a mixture of CAR+ and CAR-cells at 1:1 ratio. After another 48 hours, mice were sacrificed and LNs were removed for FACS analysis.

[1] = Trafficking to and retention in lymph nodes (IVIS imaging); format: in vivo, mice; settings: free FITC control
Experimental: Based on the results of Example 2, it was next determined whether the amphiphilic ligand conjugate DSPE-PEG-FITC could coat antigen presenting cells in lymph nodes (LN) to prime FITC-CAR-T cells in vivo. To assess DSPE-PEG-FITC trafficking to the lymph node and retention and uptake by APCs, C57BIU6 mice received varying doses of DSPE-PEG-FITC. Specifically, inguinal LN, auxiliary LN and lilac LN were harvested 24 hours after administration of 2 nmol, 5 nmol, or 10 nmol doses of DSPE-PEG-FITC was into the tail-veil of the mice. Free FITC was used as control. Mice were sacrificed and LNs were removed at different time point for IVIS imaging (excitation 465 nm, emission 520 nm) to monitor LN retention of FITC signal.
While FITC signal was almost lost at the lowest dose (2 nmol) after 4 days, the signal was retained for more than 21 days at high dose (10 nmol) of DSPE-PEG-FITC (FIG. 3A). Free FITC signal was lost in 24 hours (FIG. 3A).

[2] = mouse, in vivo
Source text: One concern was that repeated vaccination may elicit antibody against FITC when conjugated to DSPE-PEG, thus blocking its stimulation to CAR in lymph nodes.

## Nc1nc2c(ncn2[C@@H]2O[C@@H]3COP(=O)(O)O[C@H]4[C@@H](O)[C@H](n5cnc6c(=O)[nH]c(N)nc65)O[C@@H]4COP(=O)(O)O[C@H]3[C@H]2O)c(=O)[nH]1 [c-di-GMP, cyclic-di-GMP]
FITC-CAR-T
  proliferation of CAR-T cells in LN: Minimal proliferation

## fluorescein isothiocyanate [Free FITC]
[1]
  time in which FITC signal was lost in LN: ≤ 24 h

B1: FITC-OVA: FITC conjugated to the carrier protein OVA (conjugate, UniProt P01012 2-386, looked up)
Ovalbumin: GSIGAASMEFCFDVFKELKVHHANENIFYCPIAIMSALAMVYLGAKDSTRTQINKVVRFDKLPGFGDSIEAQCGTSVNVHSSLRDILNQITKPNDVYSFSLASRLYAEERYPILPEYLQCVKELYRGGLEPINFQTAADQARELINSWVESQTNGIIRNVLQPSSVDSQTAMVLVNAIVFKGLWEKAFKDEDTQAMPFRVTEQESKPVQMMYQIGLFRVASMASEKMKILELPFASGTMSMLVLLPDEVSGLEQLESIINFEKLTEWTSSNVMEERKIKVYLPRMKMEEKYNLTSVLMAMGITDVFSSSANLSGISSAESLKISQAVHAAHAEINEAGREVVGSAEAGVDAASVSEEFRADHPFLFCIKHIATNAVLFFGRCVSP
modifications: FITC
[2]
  antibody response against FITC: no antibody response was observed
